Consider 24 compounds from patent US20190375708A1 (VenatoRx Pharmaceuticals, Inc., priority 2018, published 2019).

Series [1] has as its system HBV replication in HepAD38 cells. Briefly: Anti-HBV replication assay in HepAD38 cells (QPCR of extracellular HBV DNA). It counts as cell-based, HBV (genotype D, serotype ayw). As to conditions: Hepatitis B virus, 168 h, 7 days incubation, extracellular HBV DNA by QPCR, read-out: Anti-HBV EC50. In short, it runs like this:
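Compounds (1 log10 serial dilutions, […]) were left 7 days on tetracycline-free HepAD38 cultures, a HepG2 line with tet-controlled HBV genotype D. EC50 came from 4-parameter regression of percent inhibition versus vehicle, using supernatant HBV DNA copies/mL measured by QPCR.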

The nature of series [2]: In vitro cytotoxicity assay (MTT cell viability) in HepG2 cells. The format is cell-based, human. As to conditions: human. The gist of the method: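 Read-out: MTT formazan absorbance at 492 nm, expressed as % of vehicle signal; CC50 by 4-parameter non-linear regression. Parental HepG2, 20,000 cells/well, treated 7 days with compound from 30 μM down to 1.0 nM.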

In general, EC50 refers to the concentration that produces a half-maximal response. Broadly, the CC50 is the concentration at which the toxic effect on the cells reaches its halfway point. A higher CC50 goes with lower toxicity to the cells. As for `Cc1cc(NC(=O)c2c(C)c(C(=O)C(=O)N[C@@H](C(=O)O)[C@@H](C)O)n(C)c2C)ccc1F` [Example 52, (2-(4-((4-fluoro-3-methylphenyl)carbamoyl)-1,3,5-trimethyl-1H-pyrrol-2-yl)-2-oxoacetyl)-D-allothreonine], the EC50 in series [1] is > 1000 nM. Moreover, the CC50 at 7 days in series [2] is > 30 µM.

With `Cc1cc(NC(=O)c2c(C)c(C(=O)C(=O)N3CCC(O)C(C)(C)C3)n(C)c2C)ccc1F` (stereo not drawn) [Example 53, N-(4-fluoro-3-methylphenyl)-5-(2-(4-hydroxy-3,3-dimethylpiperidin-1-yl)-2-oxoacetyl)-1,2,4-trimethyl-1H-pyrrole-3-carboxamide], the EC50 in series [1] lay in the range of 50 to 499 nM. Also, in series [2], the CC50 at 7 days is > 30 µM.

In the case of `Cc1cc(NC(=O)c2c(C)c(C(=O)C(=O)N[C@H](CO)C(N)=O)n(C)c2C)ccc1F` [Example 54, (R)-5-(2-((1-amino-3-hydroxy-1-oxopropan-2-yl)amino)-2-oxoacetyl)-N-(4-fluoro-3-methylphenyl)-1,2,4-trimethyl-1H-pyrrole-3-carboxamide], in series [1], the EC50 was in the range of 50 to 499 nM. For the same compound, the cytotoxic concentration (CC50) at 7 days in series [2] is > 30 µM.

For the compound `COC(=O)[C@@H](NC(=O)C(=O)c1c(C)c(C(=O)Nc2ccc(F)c(C)c2)c(C)n1C)C1CCCCC1` [Example 55, methyl (S)-2-cyclohexyl-2-(2-(4-((4-fluoro-3-methylphenyl)carbamoyl)-1,3,5-trimethyl-1H-pyrrol-2-yl)-2-oxoacetamido)acetate], the EC50 in series [1] lay within 500 to 1000 nM. The same compound had a CC50 at 7 days in series [2] of 0.5 to 4.99 µM.

`COC(=O)[C@H](NC(=O)C(=O)c1c(C)c(C(=O)Nc2ccc(F)c(C)c2)c(C)n1C)C1CCCCC1` [Example 56, methyl (R)-2-cyclohexyl-2-(2-(4-((4-fluoro-3-methylphenyl)carbamoyl)-1,3,5-trimethyl-1H-pyrrol-2-yl)-2-oxoacetamido)acetate]: the EC50 in series [1] was < 50 nM. This compound also had a CC50 at 7 days in series [2] of 0.5 to 4.99 µM.

In the case of `Cc1cc(NC(=O)c2c(C)c(C(=O)C(=O)N[C@H](C(N)=O)[C@H](C)O)n(C)c2C)ccc1F` [Example 57, 5-(2-(((2S,3S)-1-amino-3-hydroxy-1-oxobutan-2-yl)amino)-2-oxoacetyl)-N-(4-fluoro-3-methylphenyl)-1,2,4-trimethyl-1H-pyrrole-3-carboxamide], in series [1], the EC50 was 50 to 499 nM. In addition, the CC50 at 7 days in series [2] was > 30 µM.

Turning to `CNC(=O)[C@@H](NC(=O)C(=O)c1c(C)c(C(=O)Nc2ccc(F)c(C)c2)c(C)n1C)[C@H](C)O` [Example 58, N-(4-fluoro-3-methylphenyl)-5-(2-(((2S,3S)-3-hydorxy-1-(methylamino)-1-oxobutan-2-yl)amino)-2-oxoacetyl)-1,2,4-trimethyl-1H-pyrrole-3-carboxamide], the 50% effective concentration (EC50) in series [1] was 500 to 1000 nM. Moreover, the CC50 at 7 days in series [2] was > 30 µM.

Regarding `Cc1cc(NC(=O)c2c(C)c(C(=O)C(=O)NC34CC5CC(C3)C(O)C(C5)C4)n(C)c2C)ccc1F` [Example 59, N-(4-fluoro-3-methylphenyl)-5-(2-(((1s,3R,4s,5S,7s)-4-hydroxyadamantan-1-yl)amino)-2-oxoacetyl)-1,2,4-trimethyl-1H-pyrrole-3-carboxamide], the EC50 in series [1] was < 50 nM. The CC50 at 7 days in series [2] is > 30 µM.

On to `CNC(=O)[C@H](NC(=O)C(=O)c1c(C)c(C(=O)Nc2ccc(F)c(C)c2)c(C)n1C)C(C)(C)C` [Example 60, (R)-5-(2-((3,3-dimethyl-1-(methylamino)-1-oxobutan-2-yl)amino)-2-oxoacetyl)-N-(4-fluoro-3-methylphenyl)-1,2,4-trimethyl-1H-pyrrole-3-carboxamide], for which, in series [1], the EC50 is < 50 nM. Further, the CC50 at 7 days in series [2] was > 30 µM.

As for `Cc1cc(NC(=O)c2c(C)c(C(=O)C(=O)N[C@@H](C(N)=O)[C@@H](C)O)n(C)c2C)ccc1F` [Example 61, 5-(2-(((2R,3R)-1-amino-3-hydroxy-1-oxobutan-2-yl)amino)-2-oxoacetyl)-N-(4-fluoro-3-methylphenyl)-1,2,4-trimethyl-1H-pyrrole-3-carboxamide], in series [1], the EC50 fell in the range of 50 to 499 nM. For the same compound, the CC50 at 7 days in series [2] is > 30 µM.

On to `CNC(=O)[C@H](NC(=O)C(=O)c1c(C)c(C(=O)Nc2ccc(F)c(C)c2)c(C)n1C)[C@@H](C)O` [Example 62, N-(4-fluoro-3-methylphenyl)-5-(2-(((2R,3R)-3-hydroxy-1-(methylmaino)-1-oxobutan-2-yl)amino)-2-oxoacetyl)-1,2,4-trimethyl-1H-pyrrole-3-carboxamide], for which the EC50 in series [1] was < 50 nM. In series [2], the CC50 at 7 days is > 30 µM.

As for `Cc1cc(NC(=O)c2c(C)c(C(=O)C(=O)N[C@H](C)C(C)(C)C)n(C)c2C)ccc1F` [Example 63, (R)-5-(2-((3,3-dimethylbutan-2-yl)amino)-2-oxoacetyl)-N-(4-fluoro-3-methylphenyl)-1,2,4-trimethyl-1H-pyrrole-3-carboxamide], in series [1], the 50% effective concentration (EC50) was < 50 nM. Besides, the CC50 at 7 days in series [2] was > 30 µM.

In the case of `Cc1cc(NC(=O)c2c(C)c(C(=O)C(=O)NCC(C)(C)C)n(C)c2C)ccc1F` [Example 64, N-(4-fluoro-3-methylphenyl)-1,2,4-trimethyl-5-(2-(neopentylamino)-2-oxoacetyl)-1H-pyrrole-3-carboxamide], the EC50 in series [1] was < 50 nM. In series [2], the CC50 at 7 days was in the range of 5 to 30 µM.

For the compound `Cc1cc(NC(=O)c2c(C)c(C(=O)C(=O)NCC(C)(C)CO)n(C)c2C)ccc1F` [Example 65, N-(4-fluoro-3-methylphenyl)-5-(2-((3-hydroxy-2,2-dimethylpropyl)amino)-2-oxoacetyl)-1,2,4-trimethyl-1H-pyrrole-3-carboxamide], the EC50 in series [1] is < 50 nM. Also, the CC50 at 7 days in series [2] was > 30 µM.

For `Cc1cc(NC(=O)c2c(C)c(C(=O)C(=O)NCC(C)(C)O)n(C)c2C)ccc1F` [Example 66, N-(4-fluoro-3-methylphenyl)-5-(2-((2-hydroxy-2-methylpropyl)amino)-2-oxoacetyl)-1,2,4-trimethyl-1H-pyrrole-3-carboxamide], in series [1], the EC50 was < 50 nM. In addition, the CC50 at 7 days in series [2] is > 30 µM.

As to `Cc1cc(NC(=O)c2c(C)c(C(=O)C(=O)N[C@H](CO)C(C)(C)C)n(C)c2C)ccc1F` [Example 67, (S)—N-(4-fluoro-3-methylphenyl)-5-(2-((1-hydroxy-3,3-dimethylbutan-2-yl)amino)-2-oxoacetyl)-1,2,4-trimethyl-1H-pyrrole-3-carboxamide], in series [1], the EC50 was < 50 nM. In addition, the CC50 at 7 days in series [2] is > 30 µM.

In the case of `Cc1cc(NC(=O)c2c(C)c(C(=O)C(=O)N[C@H](C(=O)O)C3CCCCC3)n(C)c2C)ccc1F` [Example 68, (S)-2-cyclohexyl-2-(2-(4-((4-fluoro-3-methylphenyl)carbamoyl)-1,3,5-trimethyl-1H-pyrrol-2-yl)-2-oxoacetamido)acetic acid], the EC50 in series [1] was > 1000 nM. For the same compound, the cytotoxic concentration (CC50) at 7 days in series [2] was > 30 µM.

`Cc1cc(NC(=O)c2c(C)c(C(=O)C(=O)N[C@@H](C(=O)O)C3CCCCC3)n(C)c2C)ccc1F` [Example 69, (R)-2-cyclohexyl-2-(2-(4-((4-fluoro-3-methylphenyl)carbamoyl)-1,3,5-trimethyl-1H-pyrrol-2-yl)-2-oxoacetamido)acetic acid]: the EC50 in series [1] was in the range of 500 to 1000 nM. Moreover, the CC50 at 7 days in series [2] was > 30 µM.

Regarding `Cc1cc(NC(=O)c2c(C)c(C(=O)C(=O)NOC(C)(C)C)n(C)c2C)ccc1F` [Example 70, 5-(2-(tert-butoxyamino)-2-oxoacetyl)-N-(4-fluoro-3-methylphenyl)-1,2,4-trimethyl-1H-pyrrole-3-carboxamide], in series [1], the EC50 is < 50 nM. Besides, the CC50 at 7 days in series [2] is > 30 µM.

For the compound `Cc1cc(NC(=O)c2c(C)c(C(=O)C(=O)NC(C)(C)C)n(CCO)c2C)ccc1F` [Example 71, 5-(2-(tert-butylamino)-2-oxoacetyl)-N-(4-fluoro-3-methylphenyl)-1-(2-hydroxyethyl)-2,4-dimethyl-1H-pyrrole-3-carboxamide], in series [1], the concentration giving a half-maximal response (EC50) was > 1000 nM. In series [2], the CC50 at 7 days is > 30 µM.

As to `Cc1cc(NC(=O)c2c(C)c(C(=O)C(=O)NC(C)(C)C(N)=O)n(CCO)c2C)ccc1F` [Example 72, 5-(2-((1-amino-2-methyl-1-oxopropan-2-yl)amino)-2-oxoacetyl)-N-(4-fluoro-3-methylphenyl)-1-(2-hydroxyethyl)-2,4-dimethyl-1H-pyrrole-3-carboxamide], the EC50 in series [1] is > 1000 nM. In addition, the CC50 at 7 days in series [2] is > 30 µM.

Consider `Cc1cc(NC(=O)c2c(C)c(C(=O)C(=O)NC34CC5CC(CC(O)(C5)C3)C4)n(CCO)c2C)ccc1F` [Example 73, N-(4-fluoro-3-methylphenyl)-5-(2-(((1r,3s,5R,7S)-3-hydroxyadamantan-1-yl)amino)-2-oxoacetyl)-1-(2-hydroxyethyl)-2,4-dimethyl-1H-pyrrole-3-carboxamide], for which, in series [1], the EC50 was > 1000 nM. Further, the CC50 at 7 days in series [2] was > 30 µM.

Consider `Cc1cc(NC(=O)c2c(C)c(C(=O)C(=O)N[C@H]3CCc4nc(N)sc4C3)n(C)c2C)ccc1F` [Example 75, (S)-5-(2-((2-amino-4,5,6,7-tetrahydrobenzo[d]thiazol-6-yl)amino)-2-oxoacetyl)-N-(4-fluoro-3-methylphenyl)-1,2,4-trimethyl-1H-pyrrole-3-carboxamide], for which the EC50 in series [1] was < 50 nM. In addition, the CC50 at 7 days in series [2] was in the range of 5 to 30 µM.

As for `Cc1cc(NC(=O)c2c(C)c(C(=O)C(=O)N[C@@H]3CCc4nc(N)sc4C3)n(C)c2C)ccc1F` [Example 76, (R)-5-(2-((2-amino-4,5,6,7-tetrahydrobenzo[d]thiazol-6-yl)amino)-2-oxoacetyl)-N-(4-fluoro-3-methylphenyl)-1,2,4-trimethyl-1H-pyrrole-3-carboxamide], the half-maximal effective concentration (EC50) in series [1] is < 50 nM. Also, the CC50 at 7 days in series [2] fell in the range of 5 to 30 µM.
